Results published in US20220370485A1, “COMPOUNDS AND METHODS FOR TREATING OR PREVENTING CARDIOVASCULAR DISEASES AND CONDITIONS” (Lexicon Pharmaceuticals, Inc., priority 2021, published 2022).
Where two headings read alike, the source gives them in different places.

Columns and labels:
[1] = test system: patients with type 2 diabetes mellitus, chronic kidney disease, and additional cardiovascular risk; conditions: T2DM + CKD patients
[2] = test system: patients with type 2 diabetes mellitus recently hospitalized for worsening heart failure; conditions: for Difference (95% CI) in least-squares mean change in KCCQ-12 score to month 4 / Difference (95% CI) in least-squares mean change in estimated GFR: sotagliflozin minus placebo
[3] = sotagliflozin vs placebo, listed as sotagliflozin
[4] = sotagliflozin vs placebo, time-to-event analysis
[5] = T2DM + worsening heart failure, N = 608
[6] = T2DM + worsening heart failure, N = 608, listed as sotagliflozin
[7] = sotagliflozin vs. placebo, T2DM + worsening heart failure
[8] = sotagliflozin vs. placebo, T2DM + worsening heart failure, listed as sotagliflozin

Structure (SMILES): CCOc1ccc(Cc2cc([C@@H]3O[C@H](SC)[C@@H](O)[C@H](O)[C@H]3O)ccc2Cl)cc1 [Sotagliflozin, (2S,3R,4R,5S,6R)-2-(4-chloro-3-(4-ethoxybenzyl)phenyl)-6-(methylthio)tetrahydro-2H-pyran-3,4,5-triol]
- Primary end point: total no. of deaths from cardiovascular causes, hospitalizations for HF, and urgent visits for HF - event rate ([1]; 200 mg once daily increased to 400 mg, N = 5292, median follow-up 16 months): 5.6 no. of events/100 patient-yr
- Deaths from any cause - event rate ([1]; N = 5292): 3.5 no. of events/100 patient-yr
- Deaths from any cause - no. of events ([1]; N = 5292): 246
- Deaths from cardiovascular causes - event rate ([1]; N = 5292): 2.2 no. of events/100 patient-yr
- Deaths from cardiovascular causes - no. of events ([1]; N = 5292): 155
- First occurrence of a sustained decrease of ≥50% in the eGFR from baseline for ≥30 days, long-term dialysis, renal transplantation, or sustained eGFR of <15 ml/min/1.73 m2 for ≥30 days - event rate ([1]; N = 5292): 0.5 no. of events/100 patient-yr
- First occurrence of a sustained decrease of ≥50% in the eGFR from baseline for ≥30 days, long-term dialysis, renal transplantation, or sustained eGFR of <15 ml/min/1.73 m2 for ≥30 days - no. of events ([1]; N = 5292): 37
- Primary end point: total no. of deaths from cardiovascular causes, hospitalizations for HF, and urgent visits for HF - no. of events ([1]; N = 5292): 400
- Total no. of deaths from cardiovascular causes, hospitalizations for HF, nonfatal myocardial infarctions, and nonfatal strokes - event rate ([1]; N = 5292): 7.6 no. of events/100 patient-yr
- Total no. of deaths from cardiovascular causes, hospitalizations for HF, nonfatal myocardial infarctions, and nonfatal strokes - no. of events ([1]; N = 5292): 541
- Total no. of deaths from cardiovascular causes, hospitalizations for HF, urgent visits for HF, and events of HF during hospitalization - event rate ([1]; N = 5292): 6.4 no. of events/100 patient-yr
- Total no. of deaths from cardiovascular causes, hospitalizations for HF, urgent visits for HF, and events of HF during hospitalization - no. of events ([1]; N = 5292): 453
- Total no. of deaths from cardiovascular causes, nonfatal myocardial infarctions, and nonfatal strokes - event rate ([1]; N = 5292): 4.8 no. of events/100 patient-yr
- Total no. of deaths from cardiovascular causes, nonfatal myocardial infarctions, and nonfatal strokes - no. of events ([1]; N = 5292): 343
- Total no. of hospitalizations for HF and urgent visits for HF - event rate ([1]; N = 5292): 3.5 no. of events/100 patient-yr
- Total no. of hospitalizations for HF and urgent visits for HF - no. of events ([1]; N = 5292): 245
- Deaths from any cause - Hazard Ratio (95% CI) ([1]; sotagliflozin vs placebo): 0.99 (0.83-1.18)
- Deaths from cardiovascular causes - Hazard Ratio (95% CI) ([1]; sotagliflozin vs placebo): 0.90 (0.73-1.12)
- Primary end point: total no. of deaths from cardiovascular causes, hospitalizations for HF, and urgent visits for HF - Hazard Ratio (95% CI) ([1]; sotagliflozin vs placebo): 0.74 (0.63-0.88)
- Total no. of deaths from cardiovascular causes, hospitalizations for HF, nonfatal myocardial infarctions, and nonfatal strokes - Hazard Ratio (95% CI) ([1]; sotagliflozin vs placebo): 0.72 (0.63-0.83)
- Total no. of deaths from cardiovascular causes, hospitalizations for HF, urgent visits for HF, and events of HF during hospitalization - Hazard Ratio (95% CI) ([1]; sotagliflozin vs placebo): 0.76 (0.64-0.89)
- Total no. of deaths from cardiovascular causes, nonfatal myocardial infarctions, and nonfatal strokes - Hazard Ratio (95% CI) ([1]; sotagliflozin vs placebo): 0.77 (0.65-0.91)
- Total no. of hospitalizations for HF and urgent visits for HF - Hazard Ratio (95% CI) ([1]; sotagliflozin vs placebo): 0.67 (0.55-0.82)
- Deaths from cardiovascular causes - Hazard Ratio (95% CI) [1, 3]: 0.90
- Primary end point: total no. of deaths from cardiovascular causes, hospitalizations for HF, and urgent visits for HF - Hazard Ratio (95% CI) [1, 3]: 0.74
- Total no. of hospitalizations for HF and urgent visits for HF - Hazard Ratio (95% CI) [1, 3]: 0.67
- Original coprimary end point: first occurrence of death from cardiovascular causes or hospitalization for heart failure - hazard ratio [1, 4]: 0.77
- Original coprimary end point: first occurrence of death from cardiovascular causes, nonfatal myocardial infarction, or nonfatal stroke - hazard ratio [1, 4]: 0.84
- Deaths from any cause - rate [2, 5]: (13.5) events per 100 person-years of follow-up
- Deaths from any cause - total no. of events [2, 5]: 65
- Deaths from cardiovascular causes - rate [2, 5]: (10.6) events per 100 person-years of follow-up
- Deaths from cardiovascular causes - total no. of events [2, 5]: 51
- Deaths from cardiovascular causes, hospitalizations and urgent visits for heart failure, and events of heart failure during hospitalization - rate [2, 5]: (54.7) events per 100 person-years of follow-up
- Deaths from cardiovascular causes, hospitalizations and urgent visits for heart failure, and events of heart failure during hospitalization - total no. of events [2, 5]: 263
- Deaths from cardiovascular causes, hospitalizations for heart failure, nonfatal myocardial infarctions, and nonfatal strokes - rate [2, 5]: (51.4) events per 100 person-years of follow-up
- Deaths from cardiovascular causes, hospitalizations for heart failure, nonfatal myocardial infarctions, and nonfatal strokes - total no. of events [2, 5]: 247
- Hospitalizations and urgent visits for heart failure - rate [2, 5]: (40.4) events per 100 person-years of follow-up
- Hospitalizations and urgent visits for heart failure - total no. of events [2, 5]: 194
- Least-squares mean change in estimated GFR ([2]; T2DM + worsening heart failure, N = 608, during follow-up): −0.34 ml/min/1.73 m^2
- Deaths from any cause - rate [2, 6]: 13.5 events per 100 person-years of
- Deaths from cardiovascular causes - rate [2, 6]: 10.6 events per 100 person-years of
- Least-squares mean change in KCCQ-12 score to month 4 ([2]; T2DM + worsening heart failure, N = 608, scores range from 0 to 100): 17.7
- Primary end point: deaths from cardiovascular causes and hospitalizations and urgent visits for heart failure - total no. of events ([2]; T2DM patients with recent worsening heart failure, 200 mg once daily increased to 400 mg, N = 608, median follow-up 9.0 months): 245
- Primary end point: deaths from cardiovascular causes and hospitalizations and urgent visits for heart failure - rate ([2]; T2DM patients with recent worsening heart failure, N = 608): (51.0) events per 100 person-years of follow-up
- Primary end point: deaths from cardiovascular causes and hospitalizations and urgent visits for heart failure - rate ([2]; T2DM patients with recent worsening heart failure, N = 608, listed as sotagliflozin): 51.0 events per 100 person-years of
- Absolute difference in rate of primary end-point events ([2]; sotagliflozin group vs placebo group (51.0 vs 76.3), 95% CI, 5.1 to 45.6): 25.3 events per 100 patient-years
- Difference (95% CI) in least-squares mean change in KCCQ-12 score to month 4 [2]: 4.1 (1.3 to 7.0) points
- Difference (95% CI) in least-squares mean change in estimated GFR [2]: −0.16 (−1.30 to 0.98) ml/min/1.73 m^2
- Difference (95% CI) in least-squares mean change in KCCQ-12 score to month 4 ([2]; listed as sotagliflozin): 4.1 points
- Difference (95% CI) in least-squares mean change in estimated GFR ([2]; listed as sotagliflozin): −0.16 ml/min/1.73 m^2
- Total number of deaths from cardiovascular causes and hospitalizations for heart failure, excluding urgent visits for heart failure - hazard ratio ([2]; sotagliflozin vs. placebo, 95% CI, 0.53 to 0.88): 0.68
- Deaths from any cause - Hazard Ratio (95% CI) [2, 7]: 0.82 (0.59 to 1.14)
- Deaths from cardiovascular causes - Hazard Ratio (95% CI) [2, 7]: 0.84 (0.58 to 1.22)
- Deaths from cardiovascular causes, hospitalizations and urgent visits for heart failure, and events of heart failure during hospitalization - Hazard Ratio (95% CI) [2, 7]: 0.68 (0.54 to 0.86)
- Deaths from cardiovascular causes, hospitalizations for heart failure, nonfatal myocardial infarctions, and nonfatal strokes - Hazard Ratio (95% CI) [2, 7]: 0.72 (0.56 to 0.92)
- Hospitalizations and urgent visits for heart failure - Hazard Ratio (95% CI) [2, 7]: 0.64 (0.49 to 0.83)
- Primary end point: deaths from cardiovascular causes and hospitalizations and urgent visits for heart failure - Hazard Ratio (95% CI) [2, 7]: 0.67 (0.52 to 0.85)
- Deaths from any cause - Hazard Ratio (95% CI) [2, 8]: 0.82
- Deaths from cardiovascular causes - Hazard Ratio (95% CI) [2, 8]: 0.84
- Primary end point: deaths from cardiovascular causes and hospitalizations and urgent visits for heart failure - Hazard Ratio (95% CI) [2, 8]: 0.67
- Original primary end point: first occurrence of either death from cardiovascular causes or hospitalization for heart failure - hazard ratio ([2]; sotagliflozin vs. placebo, time-to-event analysis, 95% CI, 0.56 to 0.89): 0.71
- Subgroup analyses of the primary efficacy end point ([2]; subgroups by geographic region, LVEF (<50% or ≥50%), timing of first dose, sex, age, renal function (FIG. 4)): consistent treatment effect
